From patent publication US12214092B2, “Systems and methods for treating biological fluids” (Cerus Corporation, priority 2017, dated 2025)
Read-outs that look alike come from different tables or passages of the source.

Legend:
[1] = S-59 photoconversion in E. coli-spiked plasma, HPLC; type: physicochemical
Procedure: Bacterial titer results pre- and post-UVA treatment are shown in the following Table 4, along with the levels of bacterial inactivation obtained (log reduction). Additionally, the efficiency of photoconversion of amotosalen (S-59) was also determined and shown as percent remaining S-59 after each indicated treatment condition. LOQ represents the limit of quantification. Bacterial titers were analyzed pre- and post-UVA treatment to determine bacterial inactivation levels, which are shown as log reduction in the following Table 5. Additionally, S-59 photoconversion was also determined by HPLC and shown as both absolute concentration and percent remaining after each indicated treatment condition.

[2] = Plasma parameters pre- and post-illumination, whole-blood derived plasma, 50 μM amotosalen, ~6.4 J/cm^2
Description: This pool and split format was repeated four times to generate four replicates.

E. coli = test: Photochemical inactivation of E. coli in human plasma with amotosalen and UVA, colony forming unit assay; type: cell-based; conditions: for E. coli Log Reduction: ~6.4 J/cm^2, n = 2
[3] = 340 nm, 220 mL plasma, 15 μM, ~6.4 J/cm^2
[4] = 340 nm, 350 mL plasma, 15 μM, ~6.4 J/cm^2
[5] = INT-100, 220 mL plasma, 15 μM, ~6.4 J/cm^2
[6] = INT-100, 350 mL plasma, 15 μM, ~6.4 J/cm^2

Procedure for platelets: Platelets collected in PAS/Plasma (65% PAS III/35% Plasma) were pooled and split into three 285 mL units for the study. Amotosalen (S-59) was added to a concentration of 150 μM, and the units were illuminated one time (˜3.6 J/cm^2 total dose), two times (˜7.2 J/cm^2 total dose), or three times (˜10.8 J/cm^2 total dose) with the narrow band 340 nm LEDs or 365 nm LEDs using the device of Example 1, or with the INT-100 device.
Additionally, various measures of platelet quality were evaluated by standard methodologies immediately after three times UVA illumination (˜10.8 J/cm^2), to identify potential differences among the light sources.

Cc1oc2c(C)c3oc(=O)cc(C)c3cc2c1COCCN [S-59, 3-(2-aminoethoxymethyl)-2,5,9-trimethylfuro[3,2-g]chromen-7-one]
% S-59 remaining ([1]; 340 nm, 1.5 μM, ~3 J/cm^2): 9.0%
% S-59 remaining ([1]; 340 nm, 1.5 μM, ~6 J/cm^2): <LOQ
% S-59 remaining ([1]; 340 nm, 1.5 μM, ~9 J/cm^2): <LOQ
% S-59 remaining ([1]; 340 nm, 15 μM, ~3 J/cm^2): 13.5%
% S-59 remaining ([1]; 340 nm, 15 μM, ~6 J/cm^2): 2.5%
% S-59 remaining ([1]; 340 nm, 15 μM, ~9 J/cm^2): <LOQ
% S-59 remaining ([1]; 340 nm, 150 μM, ~3 J/cm^2): 39.9%
% S-59 remaining [1, 3]: 3.0%
S-59 Remaining [1, 3]: 0.5 µM
% S-59 remaining [1, 4]: 8.0%
S-59 Remaining [1, 4]: 1.1 µM
% S-59 remaining ([1]; INT-100, 15 μM, ~3 J/cm^2): 40.5%
% S-59 remaining ([1]; INT-100, 150 μM, ~3 J/cm^2): 63.0%
% S-59 remaining [1, 5]: 26.0%
S-59 Remaining [1, 5]: 4.0 µM
% S-59 remaining [1, 6]: 37.0%
S-59 Remaining [1, 6]: 5.5 µM
Factor II ([2]; 340 nm, Post-UVA): 84.00 IU/dL
Factor V ([2]; 340 nm, Post-UVA): 88.83 IU/dL
Factor VIII ([2]; 340 nm, Post-UVA): 127.18 IU/dL
Factor X ([2]; 340 nm, Post-UVA): 84.68 IU/dL
Factor XI ([2]; 340 nm, Post-UVA): 73.93 IU/dL
Fibrinogen ([2]; 340 nm, Post-UVA): 259.75 mg/dL
PT ([2]; 340 nm, Post-UVA): 12.03 s
Protein C ([2]; 340 nm, Post-UVA): 122.33 IU/dL
Protein S ([2]; 340 nm, Post-UVA): 118.03 IU/dL
Total Protein ([2]; 340 nm, Post-UVA): 72.43 mg/mL
aPTT ([2]; 340 nm, Post-UVA): 33.95 s
pCO2 @ 37° C. ([2]; 340 nm, Post-UVA): 66.75 mmHg
pH @ 37° C. ([2]; 340 nm, Post-UVA): 7.20
pO2 @ 37° C. ([2]; 340 nm, Post-UVA): 42.88 mmHg
Factor II ([2]; 340 nm, Pre-UVA): 93.43 IU/dL
Factor V ([2]; 340 nm, Pre-UVA): 97.08 IU/dL
Factor VIII ([2]; 340 nm, Pre-UVA): 165.50 IU/dL
Factor X ([2]; 340 nm, Pre-UVA): 96.68 IU/dL
Factor XI ([2]; 340 nm, Pre-UVA): 85.65 IU/dL
Fibrinogen ([2]; 340 nm, Pre-UVA): 290.00 mg/dL
PT ([2]; 340 nm, Pre-UVA): 11.68 s
Protein C ([2]; 340 nm, Pre-UVA): 133.90 IU/dL
Protein S ([2]; 340 nm, Pre-UVA): 119.00 IU/dL
Total Protein ([2]; 340 nm, Pre-UVA): 72.13 mg/mL
aPTT ([2]; 340 nm, Pre-UVA): 31.15 s
pCO2 @ 37° C. ([2]; 340 nm, Pre-UVA): 67.38 mmHg
pH @ 37° C. ([2]; 340 nm, Pre-UVA): 7.19
pO2 @ 37° C. ([2]; 340 nm, Pre-UVA): 131.80 mmHg
Factor II ([2]; INT-100, Post-UVA): 110.93 IU/dL
Factor V ([2]; INT-100, Post-UVA): 90.25 IU/dL
Factor VIII ([2]; INT-100, Post-UVA): 108.85 IU/dL
Factor X ([2]; INT-100, Post-UVA): 84.53 IU/dL
Factor XI ([2]; INT-100, Post-UVA): 76.63 IU/dL
Fibrinogen ([2]; INT-100, Post-UVA): 261.50 mg/dL
PT ([2]; INT-100, Post-UVA): 12.28 s
Protein C ([2]; INT-100, Post-UVA): 109.30 IU/dL
Protein S ([2]; INT-100, Post-UVA): 121.80 IU/dL
Total Protein ([2]; INT-100, Post-UVA): 70.35 mg/mL
aPTT ([2]; INT-100, Post-UVA): 33.98 s
pCO2 @ 37° C. ([2]; INT-100, Post-UVA): 60.68 mmHg
pH @ 37° C. ([2]; INT-100, Post-UVA): 7.24
pO2 @ 37° C. ([2]; INT-100, Post-UVA): 41.55 mmHg
Factor II ([2]; INT-100, Pre-UVA): 91.45 IU/dL
Factor V ([2]; INT-100, Pre-UVA): 98.55 IU/dL
Factor VIII ([2]; INT-100, Pre-UVA): 154.25 IU/dL
Factor X ([2]; INT-100, Pre-UVA): 92.40 IU/dL
Factor XI ([2]; INT-100, Pre-UVA): 89.55 IU/dL
Fibrinogen ([2]; INT-100, Pre-UVA): 278.75 mg/dL
PT ([2]; INT-100, Pre-UVA): 11.48 s
Protein C ([2]; INT-100, Pre-UVA): 98.55 IU/dL
Protein S ([2]; INT-100, Pre-UVA): 111.88 IU/dL
Total Protein ([2]; INT-100, Pre-UVA): 80.18 mg/mL
aPTT ([2]; INT-100, Pre-UVA): 30.35 s
pCO2 @ 37° C. ([2]; INT-100, Pre-UVA): 69.20 mmHg
pH @ 37° C. ([2]; INT-100, Pre-UVA): 7.22
pO2 @ 37° C. ([2]; INT-100, Pre-UVA): 141.95 mmHg
Log reduction (E. coli; 340 nm, 1.5 μM, ~3 J/cm^2): 1.3 log
Post-UVA titer (E. coli; 340 nm, 1.5 μM, ~3 J/cm^2): 5.0 log cfu/mL
Pre-UVA titer (E. coli; 340 nm, 1.5 μM, ~3 J/cm^2): 6.3 log cfu/mL
Log reduction (E. coli; 340 nm, 1.5 μM, ~6 J/cm^2): 1.5 log
Post-UVA titer (E. coli; 340 nm, 1.5 μM, ~6 J/cm^2): 4.8 log cfu/mL
Pre-UVA titer (E. coli; 340 nm, 1.5 μM, ~6 J/cm^2): 6.3 log cfu/mL
Log reduction (E. coli; 340 nm, 1.5 μM, ~9 J/cm^2): 1.4 log
Post-UVA titer (E. coli; 340 nm, 1.5 μM, ~9 J/cm^2): 4.9 log cfu/mL
Pre-UVA titer (E. coli; 340 nm, 1.5 μM, ~9 J/cm^2): 6.3 log cfu/mL
Log reduction (E. coli; 340 nm, 15 μM, ~3 J/cm^2): 4.7 log
Post-UVA titer (E. coli; 340 nm, 15 μM, ~3 J/cm^2): 1.4 log cfu/mL
Pre-UVA titer (E. coli; 340 nm, 15 μM, ~3 J/cm^2): 6.1 log cfu/mL
Log reduction (E. coli; 340 nm, 15 μM, ~6 J/cm^2): 5.6 log
Post-UVA titer (E. coli; 340 nm, 15 μM, ~6 J/cm^2): 0.5 log cfu/mL
Pre-UVA titer (E. coli; 340 nm, 15 μM, ~6 J/cm^2): 6.1 log cfu/mL
Log reduction (E. coli; 340 nm, 15 μM, ~9 J/cm^2): 5.6 log
Post-UVA titer (E. coli; 340 nm, 15 μM, ~9 J/cm^2): 0.5 log cfu/mL
Pre-UVA titer (E. coli; 340 nm, 15 μM, ~9 J/cm^2): 6.1 log cfu/mL
Log reduction (E. coli; 340 nm, 150 μM, ~3 J/cm^2): >7.0 log
Post-UVA titer (E. coli; 340 nm, 150 μM, ~3 J/cm^2): <−0.7 log cfu/mL
Pre-UVA titer (E. coli; 340 nm, 150 μM, ~3 J/cm^2): 6.3 log cfu/mL
E. coli Log Reduction (E. coli; 340 nm, 220 mL plasma, 15 μM): 6.0 log
E. coli Log Reduction (E. coli; 340 nm, 350 mL plasma, 15 μM): 4.6 log
Log reduction (E. coli; INT-100, 15 μM, ~3 J/cm^2): 4.2 log
Post-UVA titer (E. coli; INT-100, 15 μM, ~3 J/cm^2): 2.0 log cfu/mL
Pre-UVA titer (E. coli; INT-100, 15 μM, ~3 J/cm^2): 6.2 log cfu/mL
Log reduction (E. coli; INT-100, 150 μM, ~3 J/cm^2): >7.1 log
Post-UVA titer (E. coli; INT-100, 150 μM, ~3 J/cm^2): <−0.7 log cfu/mL
Pre-UVA titer (E. coli; INT-100, 150 μM, ~3 J/cm^2): 6.4 log cfu/mL
E. coli Log Reduction (E. coli; INT-100, 220 mL plasma, 15 μM): 5.3 log
E. coli Log Reduction (E. coli; INT-100, 350 mL plasma, 15 μM): 4.4 log
ATP (platelets; 340 nm): 4.0 mmol/×10^8
Lysis (platelets; 340 nm): 2.36%
pH (37° C.) (platelets; 340 nm): 6.61
ATP (platelets; 365 nm): 4.8 mmol/×10^8
Lysis (platelets; 365 nm): 1.72%
pH (37° C.) (platelets; 365 nm): 6.74
ATP (platelets; INT 100): 4.1 mmol/×10^8
Lysis (platelets; INT 100): 2.25%
pH (37° C.) (platelets; INT 100): 6.60
